Measurements published in patent publication US20050019746A1, “Apoptosis-related kinase/GPCRs” (EiRx Therapeutics Limited, priority 2003, published 2005).

Legend:
[1] = test system: human primary neutrophils; assay: Neutrophil apoptosis by sub G1 analysis (DNA fragmentation); type: cell-based; conditions: inhibitor 20 μM with GM-CSF 50 units/ml, 18 h, relative to GM-CSF alone
Protocol: Neutrophils are isolated from the blood as described in WO 02/04657 and resuspended at a concentration of 2×10^6/ml. Five hundred microlitres are pipetted into wells of a 24 well plate and incubated in the presence or absence of survival factors.
After this incubation, the neutrophils are carefully resuspended by gentle agitation and the total contents of the well are placed into an eppendorf and centrifuged@2800 rpm for 2 min@RT in a minifuge. The cell pellet is carefully resuspended in 300 μl of ice cold hypotonic fluorochrome solution (50 μg/ml Propidium Iodide, 0.1% Sodium Citrate and 0.1% Triton X-100) and placed in a fridge for 24 h@4° C.
Prepared samples are analysed with a FacsCalibre flow cytometer (Becton Dickinson) using double discrimination to ensure single cell suspension with Log Forward and Side Scatter Parameter acquisition.
(§1) Neutrophils are seeded at 2×10^6/ml in a 24 well plate in full culture medium (1 ml/well). A PI3K inhibitor (Ly294002) is added to the neutrophils to a final concentration of 20 μM prior to the addition of GM-CSF (50 units/ml). Control wells received either no GM-CSF or F GM-CSF (50 units/ml) in the absence of inhibitor. Neutrophils are cultured for 18 h at 37° C. prior to harvest and prepared for sub G1 analysis, as previously described.
as §1, with “An AKT” for “A PI3K”, “([1L-6-Hydroxymethyl-chiro-inositol 2-O-methyl-3-O-octadecylcarbonate] (Calbiochem))” for “(Ly294002)”, “μM and incubated for 2 h” for “μM”, “receive” for “received”, “or” for “or F”

[2] = test system: PDK1 regulatory sites in S6K1 and Akt; conditions: Ballif et al; cited from earlier work
[3] = test system: JAK3-positive leukemia cell lines DAUDI, RAMOS, LC1;19, NALM-6, MOLT-3, HL-60; conditions: concentration-dependent, not JAK3-negative lines (Sudbeck et al); cited from earlier work
glioblastoma cell = conditions: Narla et al; cited from earlier work
HCT15 cells [4] = assay: 10-14 day Clonagenicity Assay (MTT), HCT15; type: cell-based, human; conditions: independent experiment n = 1, dilution point of maximum toxicity
Procedure, shortened: (§2)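 Read-out is MTT conversion 10-14 days after siRNA transfection, expressed as average percentage viability relative to missense oligomer at the seed density of maximum toxicity. Oligomers were applied at 2 μg/ml for 4 hours to cells plated over six 1-in-2 dilutions. Cytotoxicity required reduced viability at two or more seed densities.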

A549 cells [5] = assay: 10-14 day Clonagenicity Assay (MTT), A549; type: cell-based, human; conditions: independent experiment n = 3, dilution point of maximum toxicity
Excerpt: (§3) The Clonagenicity Assay represents a Cell Viability Screen that allows assessment of a cytotoxic insult at a variety of seed densities of cancer cell lines over an extended period of logarithmic growth, such that the definitive effect of the test substance can be accurately quantified. In this instance, the ‘cytotoxic insult’ to be tested involves the transfection of siRNA Oligomers to knockdown the expression of novel target Kinases and GPCRs as outlined previously. Cell number is quantified 10-14 days post siRNA transfection by MTT conversion as described in detail in Example 6.
(§4) The Clonagenicity Assay is optimised for each cell line examined with respect to seed number. The seed number varies for each cell line and accounts for the differences in cell size, growth rate and sensitivity to transfection-induced toxicity for each cell line pursued. Cells lines given as models for this example include HCT15, MCF7, A549, SKOV3, DU145, U251, PC3, A498 and HeLa. The siRNA oligo to Survivin serves as a positive control for toxicity in this assay and the missense control oligomer acts as a negative control as described in detail in Examples 5 and 6. The c-Raf, BCL2 and PI3K siRNA oligomers serve as additional controls as previously mentioned. The Clonagenicity assay is performed as outlined below.
(§5) Cells are seeded into a 96-well plate as described below and allowed to adhere overnight at 37° C. in a humidified atmosphere containing 5% CO2 in air. Wells are seeded with an appropriate cell number (cell line dependent) in Column 1 of the 96 well plates and this cell suspension is diluted 1 in 2 across the 96 well plates from Column 1 through to 6 (represented on the x-axis in results). Cells are next transfected with siRNA Oligomers, at a concentration of 2 μg/ml, against the genes of interest. Transfections continue for 4 hrs after which the transfection solution is removed and cells are refed with fresh medium and allow to incubate overnight. An additional media change@24 hrs post transfection is made to minimise toxicity of the transfection reagent. Cells are subsequently incubated for a 10-14 Day period post transfection at a 37° C. incubation as described above. Medium is renewed weekly following which MTT quantification is performed as described in Example 5.
(§6) To be considered cytotoxic, the siRNA Oligo against the gene target must induce a decreased viability in a cell line across at least 2 seed densities in the clonagenicity assay, such that a significant difference between the target gene and MS is observed i.e. no crossing of the Standard Error bars is detected. The average percentage viability, relative to missense, is recorded for the dilution point at which Maximum Toxicity is induced is recorded in Table 13.
(§7) Table 13 Clonagenicity Assay—This table gives the average percentage survival of the indicated cell lines relative to the missense in a clonagenicity assay, over 3 independent experiments. As an internal reference, the known survival gene ‘Survivin’, BCL2, c-Raf and PI3KR1 was also targeted by siRNA. When no Cytotoxic response is detected ‘-’ is recorded.

SKOV3 cells = assay: 10-14 day Clonagenicity Assay (MTT), SKOV3; type: cell-based, human; conditions: independent experiment n = 1, dilution point of maximum toxicity
Procedure, shortened: as §2

DU145 cells = assay: 10-14 day Clonagenicity Assay (MTT), DU145; type: cell-based, human; conditions: independent experiment n = 2, dilution point of maximum toxicity
Excerpt: as §3, §4, §5, §6, §7

A498 cells = assay: 10-14 day Clonagenicity Assay (MTT), A498; type: cell-based, human; conditions: independent experiment n = 3, dilution point of maximum toxicity
Procedure, shortened: as §2

A549 cells [6] = assay: Anchorage Independence/Soft Agar Assay, A549; type: cell-based, human; design: PERCENTAGE SURVIVAL RELATIVE TO MS, A549, n = 2: tested at 2 µg; conditions: soft agar
Protocol: (§8) The Anchorage Independence/Soft Agar Assay allows assessment of the influence of modulation of gene expression on clonal tumouroid formation by observing and quantifying tumouroid morphology and colony number over an extended period of logarithmic growth thereby ascertaining any cell death is induced.
(§9) Cells are seeded into a 6-well plate and allowed to adhere overnight at 37° C. in a humidified atmosphere containing 5% CO2 in air. Cells are next transfected with siRNA Oligomers, at a concentration of 2 μg, against the genes of interest. Transfections continued for 4 hrs after which the transfection solution is removed and cells are refed with fresh medium and allowed incubate overnight. Transfected cells are next harvested for seeding into soft agar assay as described below. Cells are seeded at 5×10^4 cells per well of a 6 well plate and incubated over a 12/14-Day period whilst proliferating in a 0.05% Agar/Medium cell suspension at 37° C. in a humidified atmosphere containing 5% CO2 in air. Colonies formed are subsequently stained with Crystal Violet, their morphology is assessed and colonies formed are enumerated at a 4× magnification.
(§10) The cytotoxic effect of each gene is determined by a reduction in colony number compared to our MS control, but any influence on the morphology of the colony is also noted.
(§11) Examples of genes with a cytotoxic effect on knockdown as detected by the soft agar assay are outlined in Table 14. Table 14 gives the percentage survival of the indicated cell lines post transfection with siRNA oligomers to target genes relative to that of the missense in an anchorage independent assay. As an internal reference, the known survival gene Survivin was also targeted by siRNA. This table illustrates the magnitude of cytotoxicity induced by the knockdown of each target gene compared to the MS control i.e. the number of colonies formed are stained with Crystal violet and enumerated visually as discussed.

HCT15 cells [7] = assay: Anchorage Independence/Soft Agar Assay, HCT15; type: cell-based, human; design: PERCENTAGE SURVIVAL RELATIVE TO MS, HCT15, n = 2: tested at 2 µg; PERCENTAGE SURVIVAL RELATIVE TO MS, HCT15, n = 1: tested at 2 µg siRNA; conditions: soft agar
Protocol: as §8, §9, §10, §11

MCF7 cells = assay: Anchorage Independence/Soft Agar Assay, MCF7; type: cell-based, human; design: PERCENTAGE SURVIVAL RELATIVE TO MS, MCF7, n = 2: tested at 2 µg; conditions: soft agar
Protocol: as §8, §9, §10, §11

cancer cell lines = assay: Anchorage Independence/Soft Agar Assay, summary over the cell lines; type: cell-based, human; conditions: 14-day anchorage independent assay, over the cell lines examined
Protocol: as §8, §9, §10
As an internal reference, the known survival gene ‘Survivin’ was also targeted by siRNA.

## CCCCCCCCCCCCCCCCCCOC(=O)OC1C(O)C(O)C(CO)C(O)C1OC (centres unmarked) [1L-6-Hydroxymethyl-chiro-inositol 2-O-methyl-3-O-octadecylcarbonate]
[1]
  apoptosis / GM-CSF mediated survival by sub G1 analysis: survival is abrogated
[1]; listed as IL-6-Hydroxymethyl-chiro-inositol 2-(R)-2-O-methyl-3-O-octadecylcarbonate
  apoptosis / GM-CSF mediated survival by sub G1 analysis: increases the amount of apoptosis

## Cc1ccc(S(=O)(=O)N[C@@H](Cc2ccccc2)C(=O)CCl)cc1 [TPCK, n-alpha-tosyl-1-phenylalanyl chloromethyl ketone]
[2]
  phosphorylation of PDK1 regulatory sites: prevented phosphorylation of the PDK1 regulatory sites in S6K1 and Akt

## COc1cc2ncnc(Nc3ccc(O)cc3)c2cc1OC [WHI-P131]
[3]
  clonogenic growth: inhibited the clonogenic growth
Glioblastoma cell
  glioblastoma cell adhesion and migration: potent inhibitors of glioblastoma cell adhesion and migration

## siRNA c-Raf: control siRNA, sense UAGUUCAGCAGUUUGGCUAtt, antisense UAGCCAAACUGCUGAACUAtt (sense UAGUUCAGCAGUUUGGCUATT; antisense UAGCCAAACUGCUGAACUATT; chemistry not given here) [reference compound]
HCT15 cells [4]
  percentage survival relative to the missense, n = 1: 83.5%
A549 cells [5]
  percentage survival relative to the missense, n = 3: 59.1%
SKOV3 cells
  percentage survival relative to the missense, n = 1: 42.5%
DU145 cells
  percentage survival relative to the missense, n = 2: 54.9%
A498 cells
  percentage survival relative to the missense, n = 3: 14.8%
A549 cells [6]; experiment n = 1
  PERCENTAGE SURVIVAL RELATIVE TO MS, A549, n = 1: 57%
A549 cells [6]; experiment n = 2
  PERCENTAGE SURVIVAL RELATIVE TO MS, A549, n = 2: 24.2%
HCT15 cells [7]; experiment n = 1
  PERCENTAGE SURVIVAL RELATIVE TO MS, HCT15, n = 1: 70%
HCT15 cells [7]; experiment n = 2
  PERCENTAGE SURVIVAL RELATIVE TO MS, HCT15, n = 2: 65.1%
MCF7 cells; experiment n = 1
  PERCENTAGE SURVIVAL RELATIVE TO MS, MCF7, n = 1: 89.7%
MCF7 cells; experiment n = 2
  PERCENTAGE SURVIVAL RELATIVE TO MS, MCF7, n = 2: 98.2%
Cancer cell lines
  cell death / apoptosis in the soft agar assay: only induced cell death in the A549 and HCT15 cell lines
